Measurements taken from US20110117055A1, “Methods of Treating Hepatitis C Virus with Oxoacetamide Compounds” (priority 2009, published 2011).
“Also recorded” adds a separate entry of the source. Read-outs that look alike come from different tables or passages of the source.

Legend:
[1] = test system: HCV2aChLuc virus; assay: In vitro HCVcc entry assay: HCV2aChLuc virus infection of Huh7 cells, Renilla luciferase read-out; assay type: cell-based, HCV genotype 2a; conditions: for IC50: Hepatitis C virus
[2] = test system: HCV1a/2a chimeric virus; assay: HCV entry assay with HCV1a/2a chimeric virus; assay type: cell-based, HCV genotype 1a
Text: Since HCV genotype 1 is the most prevalent genotype among the variants of HCV, we constructed an HCV1a/2a chimeric infectious clone with two cell-culture adaptive mutations introduced. Sequences for the structural proteins (including C, E1, and E2), p7, and NS2 were derived from HCV genotype 1a H77 strain. The rest of nonstructural proteins (NS3 to NS5B) and 3′ NTR were derived from HCV genotype 2a JFH strain. 5′NTR was originated from HCV2aJ6 (FIG. 7). […] Therefore, both HCV1a/2aCh virus and HCV1a/2aChLuc virus with Y361H and Q1251L mutations were successively produced in Huh7 cells and used for HCV entry assay.

[3] = test system: HCV2a/2aChRluc virus; assay: Compound 5 with ribavirin or VX950 in the HCV2a/2aChRluc system; assay type: cell-based, HCV genotype 2a; conditions: ribavirin alone, 15 μM
Procedure: 100 μl of serially diluted compound solutions (100, 30, 10, 3, 1, 0.3, and 0.1 nM) was inoculated onto Huh-7 cells in a 96-well plate. Subsequently, 100 ul (TCID50, ˜0.6) of HCV2a/2aChRluc virus was added onto the cells. After co-incubation for 72 hrs, Renilla luciferase expression was determined (Renilla Luciferase Assay, Promega) and reported as relative light units (RLU).
Data analysis. Determinations of compound interactions were quantified based on the median-effect principle described by Chou and Talalay. Chou T., Talalay P., Adv. Enzyme. Regul., 1984, 22:27-55. Combination indices (CIs) were determined using Calcusyn (Biosoft) for each experiment at the EC50, EC75, and EC90 levels. Five replicates per condition were evaluated. A CI<0.9 was considered synergistic, a CI≧0.9 and ≦[…] was considered additive, and a CI>1.1 was deemed antagonistic.

[4] = test system: Jc1-luc virus; assay: Luciferase compound activity assay, Jc1-luc virus in Huh7.5.1 cells; assay type: cell-based, HCV genotype-2a; conditions: Hepatitis C virus, Huh-7.5.1
Procedure: Cell culture. Human hepatoma Huh-7.5.1 cells or Huh7 cells were grown at 37° C. and 5% CO2 in Dulbecco's modification of Eagle's medium supplemented with 2 mM L-glutamine, 1 mM Sodium pyruvate, 1× Non-essential amino acids mix, 100 units/ml penicillin, 100 μg/ml streptomycin, and 10% fetal bovine serum.
Virus plasmids. The chimeric full-length construct pFL-JC1, a GT2a/2a chimera consisting of structural genes from the J6CF isolate and non-structural genes from the JFH1 isolate, has been described previously. See Backes et al., J. Virol. 2010, 84:5775-89; Schaller et al., J. Virol., 2007, 81:4591-603; Koutsoudakis et al., J. Virol. 2006, 80:5308-20; Pietschmann et al., Proc. Natl. Acad. Sci., 2006, 103:7408-13. The firefly luciferase gene has been inserted to pFL-Jc1 to develop a plamid pFL-Jc1-luc for use as a reporter of viral replication. See Amako et al., J. Virol. 2009, 83:9237-46. Specifically, the pFL-JC1-luc construct can be utilized to develop an infectious HCV cell culture system to test novel HCV inhibitors, including entry inhibitors, in vitro using luciferase expression.
Preparation of infectious HCV. Jc1-luc or HCV2a/2aChRluc RNA was in vitro transcribed using T7 RiboMAX™ Express Large Scale RNA Production System (Promega). After RNA clean up (Qiagen RNeasy Mini kit), transfection was performed as previously described.
400 microliters of a Huh-7.5.1 or Huh7 cell suspension (10^7 cells/ml) was placed in a 0.4-cm cuvette with 10 μg of Jc1-luc or HCV2a/2aChRluc RNA and electroporated (Bio-Rad Gene Pulser System) using a single square wave at 260 V and 25 ms pulse length. The cells were plated in 15-cm tissue culture dishes (Corning) and supernatant was harvested and concentrated using a centrifugal filter (Amicon 100K, Millipore).
Luciferase compound activity assay. Cell culture and luciferase compound assays were performed as previously described. See Wyles et al., J. Virol. 2007, 81:3005-8; Wyles et al., Antimicrob Agents Chemother. 2009, 53:2660-2; Grünberger et al., J. Infect. Dis. 2008, 197:42-5; Wyles et al., Antimicrob Agents Chemother, 2008, 52:1862-4. Briefly, Huh7.5.1 cells were seeded into 96-well plates at a density of 10,000 cells per well in 100 μl medium. After incubating overnight for attachment, Jc1-luc virus at an MOI 0.01 was added to wells with or without compounds at the specified concentrations. All conditions were run in triplicate. After 24 hours, medium was aspirated and replaced with 100 μl of complete medium containing an identical concentration of compound(s) followed by additional 48 hour incubation. The luciferase assay (Bright-Glo; Promega) was carried out according to the manufacturer's instructions. Luciferase activity was determined using a microplate luminometer (Veritas microplate luminometer; Turner Biosystems). […]

[5] = Cytotoxicity of anti-HCV compounds (CC50, Table 4); conditions: human, Huh7.5.1 cells
[6] = test system: HCV genotype 1b subgenomic replicon; assay: HCV replicon assay (HCV1b replicon cells, NS5A ELISA); assay type: cell-based; conditions: 3 days
Procedure: Alternatively, Hut1b cells (Huh7 cells stably replicating HCV genotype 1b subgenomic replicon) were treated with serial dilutions of the test compound for 72 hours. Replication efficiency was monitored by ELISA assay using anti-HCV NS5A monoclonal antibody (Virogen).
Increasing amounts of compound were inoculated onto HCV1b replicon cells and incubated for 3 days. Following incubation, HCV replication was monitored with NS5A protein expression by ELISA.

[7] = test system: Bovine viral diarrhea virus (BVDV); assay: BVDV plaque-forming assay in MDBK cells; assay type: cell-based; conditions: even at 1 μM
Procedure: Bovine viral diarrhea virus (BVDV) is a closely related virus to HCV, belonging to the same Family, Flaviviridae. To validate the specificity of antiviral activity, BVDV infection was done with MDBK cells in the presence of compounds provided herein. MDBK cells (70 to 80% confluent) were infected with a diluted virus. Following 1 h of adsorption at 37° C., cells were washed once with DMEM, overlaid with 1.5% low-melting-point (LMP) agarose (Gibco-BRL) in MEM containing 5% HS, and incubated at 37° C. To assay for plaque-forming virus, after 3 days monolayers were fixed with 3.7% formaldehyde for 2 h at room temperature, the agarose plugs were removed, and the monolayers were stained with crystal violet.

[8] = test system: HCV; assay: Combination of viral entry inhibitor with IFN-α, HCVcc infection system, luciferase assay; assay type: cell-based; conditions: Huh7 cells, 72 hrs
Procedure: The current standard of care for the treatment of chronic hepatitis C is the combination of pegylated IFN-α (interferon-alpha) and ribavirin. […] Huh7 cells were incubated with various concentrations of Compound 1 or interferon alone, or combinations of both for 72 hrs, and the anti-HCV activity was measured by luciferase assays. The same was experiment was performed for Compound 5.

[9] = test system: HCV1a chimeric virus and 2a chimeric virus; assay: Combination of viral entry inhibitor with ribavirin; assay type: cell-based, HCV; conditions: ribavirin 15 μM
Procedure: Varying amounts of each compound were coincubated with a high concentration of ribavirin (15 μM).

[10] = test system: HCV; assay: Combination of viral entry inhibitor with HCV protease inhibitor VX-950; assay type: cell-based; conditions: fixed ratio based on EC50
Procedure: Additional combination studies of Compound 1 and Compound 5 with the HCV NS3 protease inhibitor VX-950 were conducted. Compound 1 and Compound 5 were tested singly and in combination with VX-950. The ratio of the two compounds, based on the compound's EC50, remained fixed across the dosing range. The potential cytotoxicity of individual compounds was assessed with a luminescent ATP-based cell viability assay (Cell Titer-Glo; Promega). Cell culture and luciferase compound assays were performed as previously described in Example 3.
Compound interactions were quantified by the approach described by Chou and Talalay, relying on the median effect principle and the multiple-drug effect equation. […] Isobolograms were generated for each combination tested and were used to determine the additivity, synergism or antagonism of inhibitor combinations. Combination indices (CI) were determined with Calcusyn (Biosoft) for each experiment at the EC50, EC75, and EC90 of the combination. By convention, a CI of <0.9 was considered synergistic, a CI of ≧0.9 or ≦1.1 was considered additive, and a CI of >1.1 was deemed antagonistic. […] Combination indices (CI) were determined with Calcusyn (Biosoft) for each experiment at the EC50, EC75, and EC90 of the combination. By convention, a CI of <0.9 was considered synergistic, a CI of ≧0.9 or ≦1.1 was considered additive, and a CI of >1.1 was deemed antagonistic.

[11] = test system: HCV2aChLuc (NS3:A156S); assay: Infectivity of protease mutant virus versus wild type in the presence of compounds; assay type: cell-based, HCV genotype 2a; conditions: HCV2aChLuc (NS3:A156S) vs wild type HCV2aChLuc
Text: Therefore, we introduced A156S mutation in the backbone of HCV2aChLuc genome and investigated the infectivity of the mutant virus in the presence of compounds.

[12] = test system: HCV2aCh (E2:G451R) mutant virus; assay: E2:G451R mutant virus infectivity, luciferase assay; assay type: cell-based, HCV genotype 2a; conditions: E2:G451R vs parental
Text: Since SR-B1 is also known to be one of the essential cellular receptors required for HCV entry, we were interested to know if Compounds 1 and 5 inhibits HCV entry via SR-B1. HCV E2 protein interaction with SR-B1 is believed to occur via hypervariable region 1 located within the N-terminal region of the E2 glycoprotein. Zhong and colleagues reported that a glycine-to-arginine mutation at position 451 (G451R) in E2 promoted JFH-1 infectivity (J. Viol. 2006, 80:11082). […] We introduced the E2:G451R mutation into the backbone of HCV2aCh (FIG. 13a) to test whether this mutation may alter the inhibitory effect of Compounds 1 and 5 on HCV entry mediated by SR-B1.

[13] = Huh-7, read-out: Activity class (IC50), tested according to the method of Example 3

## NC(=O)c1ncn([C@@H]2O[C@H](CO)[C@@H](O)[C@H]2O)n1 [ribavirin, reference compound]
[1]; ribavirin alone, 15 μM
  inhibitory effect on infectivity of 2a chimeric virus: did not have significant inhibitory effect
[2]; ribavirin alone, 15 μM
  inhibitory effect on infectivity of HCV1a chimeric virus: did not have significant inhibitory effect
[3]
  inhibitory effect on the infectivity of 2a chimeric virus: did not have significant inhibitory effect

## C[C@@]1(O)[C@H](O)[C@@H](CO)O[C@H]1n1cnc2c(N)ncnc21 [2′-C-methyladenosine, reference compound]
[4]
  EC50: 252 ± 33.5 nM
[5]
  CC50: > 100000 nM

## COc1ccc(C(C)(C)C)cc1NC(=O)C(=O)c1ccc(OCCN2CCOCC2)c2ccccc12 [Compound 1, N-(5-tert-butyl-2-methoxyphenyl)-2-(4-(2-morpholinoethoxy)naphthalen-1-yl)-2-oxoacetamide]
[1]; Huh-7, 72 h, read-out: observed IC50, Huh7 cells co-incubated with HCV2aChRluc virus and compound for 3 days, repeated assays (n>30)
  IC50: 0.2 to 2 nM
[1]; [13]
  IC50: < 5 nM
[1]; Huh7 cells, 3 days
  inhibitory effect on HCV2aChLuc viral entry: dose-dependent inhibitory effect; also recorded: dose-dependent inhibition
[6]
  effect on HCV replication (NS5A protein expression by ELISA): did not measurably inhibit; also recorded: no measurable effect
[7]
  inhibitory effect on BVDV infection: no measurable inhibitory effect
[2]; compared with HCV2a chimeric virus
  inhibition of HCV1a chimeric virus: inhibited
[8]
  effect of combination with IFN-α on inhibition of HCV infection in cell culture: additive to moderate synergistic effect
[9]
  effect of combination with ribavirin: no antagonistic effect
[10]
  effect of combination with VX-950: additive to slightly synergistic effects
[11]
  resistance of NS3:A156S mutant virus versus wild type (inhibition of infectivity): no significant difference
[12]
  sensitivity of E2 mutant virus relative to parental virus, luciferase assay for viral infectivity: greater resistance

## COc1ccc2c(O[C@@H]3C[C@H]4C(=O)N[C@]5(C(=O)O)C[C@H]5/C=C\CCCCC[C@H](NC(=O)OC5CCCC5)C(=O)N4C3)cc(-c3csc(NC(C)C)n3)nc2c1 [BILN2061, reference compound]
[4]
  EC50: 492 ± 56.7 nM
[5]
  CC50: 35000 nM

## CCC[C@H](NC(=O)[C@@H]1[C@H]2CCC[C@H]2CN1C(=O)[C@@H](NC(=O)[C@@H](NC(=O)c1cnccn1)C1CCCCC1)C(C)(C)C)C(=O)C(=O)NC1CC1 [VX-950, reference compound]
[11]
  resistance of NS3:A156S mutant virus versus wild type (inhibition of infectivity): high level resistance; also recorded: resistant
[11]; listed as VX950
  resistance of NS3:A156S mutant virus versus wild type (inhibition of infectivity): highly resistant

## CCOC(=O)N1CCN(CCOc2ccc(C(=O)C(=O)Nc3cc(C(C)(C)C)cc(NS(C)(=O)=O)c3OC)c3ccccc23)CC1 [Compound 52]
[1]; [13]
  IC50: 5 to 500 nM

## COc1c(NC(=O)C(=O)c2ccc(OC)c3ccccc23)cc(C(C)(C)C)cc1C(N)=O [Compound 77]
[1]; [13]
  IC50: > 500 nM

## COc1c(NC(=O)C(=O)c2ccc(OCCN3CCOCC3)c3ccccc23)cc(C(C)(C)C)cc1N(CCN1CCOCC1)S(C)(=O)=O [Compound 117]
[1]; [13]
  IC50: > 500 nM

## Cc1ccc(Cl)cc1NC(=O)C(=O)c1ccc(OCCN2CCOCC2)c2ccccc12 [Compound 112]
[1]; [13]
  IC50: > 500 nM

## COc1c(NC(=O)C(=O)c2ccc(OCCN3CCOCC3)c3ccccc23)cc(C(C)(C)C)cc1-n1ccnc1 [Compound 107]
[1]; [13]
  IC50: 5 to 500 nM

## COc1c(NC(=O)C(=O)c2ccc(OCCN3CCOCC3)c3ccccc23)cc(C(C)(C)C)cc1S(=O)(=O)N(C)C [Compound 2, N-(5-tert-butyl-3-(N,N-dimethylsulfamoyl)-2-methoxyphenyl)-2-(4-(2-morpholinoethoxy)naphthalen-1-yl)-2-oxoacetamide]
[1]; [13]
  IC50: < 5 nM

## COc1c(NC(=O)C(=O)c2ccc(OCCN3CCOCC3)c3ccccc23)cc(C(C)(C)C)cc1C(=O)N1CC2CCC(C1)N2 [Compound 104]
[1]; [13]
  IC50: > 500 nM

## COc1c(C#N)cc(C(C)(C)C)cc1NC(=O)C(=O)c1ccc(-c2ccc(NCCC(C)(C)C)nc2)c2ccccc12 [Compound 94]
[1]; [13]
  IC50: > 500 nM

## O=C(Nc1nc(Cl)ccc1[N+](=O)[O-])C(=O)c1ccc(OCCN2CCOCC2)c2ccccc12 [Compound 118]
[1]; [13]
  IC50: > 500 nM

## COc1c(NC(=O)C(=O)c2ccc(OCCCS(=O)(=O)N(C)C)c3ccccc23)cc(C(C)(C)C)cc1NS(C)(=O)=O [Compound 123]
[1]; [13]
  IC50: 5 to 500 nM
